Reference: patent US20020009421A1, “Therapy following skin injury from exposure to ultraviolet radiation” (priority 2000, published 2002)

Key:
UV-B mediated injury = details: cited from earlier work
[1] = system: UV radiation-induced tumor formation and UV-B mediated inflammatory response; details: oral administration, cited from earlier work
sunburn = assay: In Vivo Evaluation: sunburn in a human subject after about six hours of intense sunlight, oral self-administration; details: for relief of pain: oral self-administration, adult with severe sunburn, celecoxib 100 mg
Description: 1. Subject: An adult, person of light complexion whose skin had not been substantially exposed to strong sunlight for approximately six months.
2. Protocol: The subject was exposed to intense sunlight at a swimming pool for approximately six hours.
3. […] At that time the subject self-administered an oral dose of acetaminophen (Extra Strength Tylenol®) to relieve the pain. […] Later in the evening the subject was unable to sleep due to the continued pain. At that time the subject self-administered a 100 mg dose of Celebrex® (celecoxib). […] Approximately twelve hours later the subject took a second dose of celecoxib to relieve the onset of discomfort due to the sunburn.

In the case of `Cc1ccc(-c2cc(C(F)(F)F)nn2-c2ccc(S(N)(=O)=O)cc2)cc1` [celecoxib, 4-[5-(4-methylphenyl)-3-(trifluoromethyl)-1H-pyrazol-1-yl]benzenesulfonamide], the “cutaneous inflammatory response after exposure of skin to UV-B radiation” value (UV-B mediated injury; oral administration) is given as “failed to block the cutaneous inflammatory response”, the “parameters of UV-B mediated injury” value (UV-B mediated injury; topical application) is given as “reduce many of the parameters of UV-B mediated injury” and the tumor formation ([1]; animals chronically exposed to UV radiation) is given as “reduced tumor formation”. For the same compound, the “acute UV-B mediated inflammatory response involving increased cell proliferation and edema” value ([1]; following acute or chronic exposure to UV radiation) was “failed to inhibit the acute UV-B mediated inflammatory response”, the “UV-B induced prostaglandin synthesis” value [1] was “block the UV-B induced prostaglandin synthesis” and the “time to almost complete relief of pain following administration” value (sunburn; 100 mg oral dose of Celebrex, adult with sunburn) was ≤ 1 h. The relief of pain (sunburn) was “almost complete relief of pain” and the “healing of the burn (blistering, peeling of surface skin)” value (sunburn; two oral doses of celecoxib about twelve hours apart, subject's report) was “rapid healing of the burn with no blistering or peeling of surface skin”.

For `CC(=O)Nc1ccc(O)cc1` [acetaminophen], the relief of pain (sunburn) was “no relief in pain”.
